Laboratory results reported in patent US20210001143A1, “FOCAL PHOTODYNAMIC THERAPY METHODS” (STEBA MAOR SA, priority 2011, published 2021).

Legend:
[1] = test system: low risk organ-confined prostate cancer; assay: Vascular-targeted photodynamic therapy (VTP), 6 month TRUS-guided biopsy; assay type: in vivo, human; settings: study PCM201, 4 mg/kg intravenously, light 200 J/cm, men
Protocol: (§1) Men with low risk organ-confined prostate cancer (Gleason 3+3 on minimum 10 core TRUS biopsy) were recruited into two consecutive studies: PCM201 (a dose escalation study) or PCM203 (a confirmatory study). The vascular-targeted photodynamic therapy (“VTP”) procedure, carried out under general anesthesia, involved administration of TOOKAD® Soluble intravenously at 4 mg/kg, which was then activated by low power laser light delivered locally to the prostate via a brachytherapy-style transperineal template with a light density of 200 J/cm. Planned treatment volume (“PTV”, in mls) was determined by the location of tumor on biopsy and by MRI, and varied in volume from less than one lobe, to the whole prostate.
(§2) The Light Density Index (“LDI”) was calculated as LDI=Σ(n)L/PTV, where Σ(n)L is the total length of all illuminating fibers (in cm), and PTV is the planned treatment volume, in mls.
(§3) This was also correlated with the result of 6 month transrectal ultrasound (TRUS)-guided biopsy (positive or negative for any cancer).
(§4) The correlation between LDI and the volume of tissue necrosis at day 7 and with the rate of negative biopsies at Month 6 was assessed in search of a threshold.
(§5) 90 men were treated with a TOOKAD® Soluble dose of 4 mg/kg and a light dose of 200 J/cm in the two studies. Of these 89 were analyzable for LDI.

[2] = test system: low risk organ-confined prostate cancer; assay: Vascular-targeted photodynamic therapy (VTP), early treatment effect on 1 week MRI (lack of gadolinium uptake); assay type: in vivo, human; settings: 4 mg/kg intravenously, light 200 J/cm, men
Protocol: as §1, §2, §3, §4, §5

Substance: Palladium 3^1-oxo-15-methoxycarbonylmethyl-rhodobacteriochlorin 13^1-(2-sulfoethyl) amide dipotassium salt [TOOKAD® Soluble]
- % of negative biopsies (6 months) ([1]; LDI < 1): 31 (4/17) %
- % of negative biopsies (6 months) ([1]; LDI ≥ 1): 83 (10/12) %
- Treatment effect on 1 week MRI as % of PTV ([2]; study PCM201, LDI < 1): 59 (17) % of PTV
- Treatment effect on 1 week MRI as % of PTV ([2]; study PCM201, LDI ≥ 1): 95 (12) % of PTV
- Treatment effect on 1 week MRI as % of PTV ([2]; study PCM203, LDI < 1): 60 (22) % of PTV
- Treatment effect on 1 week MRI as % of PTV ([2]; study PCM203, LDI ≥ 1): 94 (28) % of PTV
